Counter-ions that a name gives are not always drawn.
Tested on: Methicillin-Resistant Staphylococcus aureus (MRSa) ATCC 33592
Assay: Time-kill (rate-of-kill) suspension assay against MRSa
Format: cell-based
Excerpt: Analyzing the efficacy of antimicrobial agents may be performed by various suspension and susceptibility methods. This study is designed to examine the rate-of-kill of a test substance against sponsor selected pure cultures of microorganisms. This is accomplished by exposing the target microorganism(s) to the test substance and inspecting the solution for potential survivors at various time periods. The experimental design in this protocol meets these requirements.
A suspension of bacterial cells is exposed to the test substance for specified contact times. After exposure, an aliquot of the suspension is transferred to a neutralizer and assayed for survivors. Appropriate purity, sterility, microorganism population and neutralization controls are performed.
Using a stock culture of the test organism, a culture of the test organism was struck onto the culture medium listed above. The bacterial cultures were incubated for 24-48 hours at 35-37° C. (alternate incubation may be utilized for certain strains). To produce a suspension containing approximately 1×10^8-1×10^9 CFU/mL, the culture suspension was adjusted with Butterfield's Buffer to yield a suspension matching a 0.5 McFarland turbidity standard.
The test substance to be tested was prepared by transferring a 5.95 mL aliquot of the prepared test substance to a sterile vessel for testing procedures. The test substances were assayed for microbial killing activity within 3 hours of preparation.
A […] aliquot of the standardized inoculum was added to the test substance representing the start of the test exposure (time=0 hr). The inoculated test substance was immediately mixed thoroughly using a laboratory vortex mixer or other applicable method. The inoculated and mixed test substance was held at the specified temperature.
A 1.0 mL aliquot of the inoculated test substance was transferred to 9 mL of neutralizer broth (10× dilution) at each of the times indicated. Four additional 1:10 dilutions in Butterfield's Buffer were also prepared. Using a standard microbiological spread plate count procedure, 1.0 mL aliquots of each dilution (10^−1-10^−4) were plated in duplicate to the appropriate recovery media.
A 5.0 mL aliquot of the neutralized sample (10× dilution) was transferred to a sterile 0.2-0.45 μm filter apparatus system pre-wetted with 10 mL sterile diluent. The sample was filter concentrated and the filter was rinsed using ≧50 mL sterile diluent. The filter was then aseptically removed and placed on the surface of the recovery agar medium to determine the percent MRSa survival.
The bacterial subculture plates were incubated for 48±4 hours at 35-37° C. Subculture plates may be refrigerated at 2-8° C. for ≦3 days prior to examination without affecting the results. Following incubation, the subculture tubes and plates were visually examined for growth. The agar plates were enumerated and recorded. Log and percent reductions will be determined for each time point.
As a control for the viability of the test organism, an equivalent volume of untreated inoculum (0.1 mL) is added to 9.9 mL Butterfield's Buffer (same volume as the test substance). This suspension was neutralized as in the test procedure. The suspension was serially diluted and appropriate dilutions plated using standard microbiological techniques. […] The acceptance criteria for this study control is growth and the value is used for calculation purposes.
Test Data CFU/mL: (avg. # colonies found/plate @ dilution used) (dilution factor) (volume of neutralized solution)/(volume plated) Percent Reduction: [1−(test survivors/test population control)]×100 Log10 Reduction: Log10 (test population control)—Log10 (test survivors) Further details of the microbial time-killing studies can be found in: • 1. American Society for Testing and Materials (ASTM). E2315-03, Guide for Assessment of Microbiocidal Activity Using a Time-Kill Procedure, Volume 11.05, Copyright 2005 ASTM International; and • 2. Food and Drug Administration. […]

[1] = 2 hour exposure, room temperature (20° C.), Agent 1 at 82 mM, Agent 2 at 41 mM, Agent 3 at 47 mM, 1.13×10^6 CFU/mL
[2] = 4 hour exposure, room temperature (20° C.), Agent 1 at 82 mM, Agent 2 at 41 mM, Agent 3 at 47 mM
[3] = 6 hour exposure, room temperature (20° C.), Agent 1 at 82 mM, Agent 2 at 41 mM, Agent 3 at 47 mM
[4] = 2 hour exposure, room temperature (20° C.), Agent 4 dissolved in DMSO, tested at 1, 10, and 100 mM
[5] = 4 hour exposure, room temperature (20° C.), Agent 4 dissolved in DMSO, tested at 1, 10, and 100 mM
[6] = 6 hour exposure, room temperature (20° C.), Agent 4 dissolved in DMSO, tested at 1, 10, and 100 mM
[7] = 2 hour exposure, room temperature (20° C.), Agent 1 at 82 mM, Agent 2 at 41 mM, Agent 3 at 47 mM, dihydrochloride
[8] = 4 hour exposure, room temperature (20° C.), Agent 1 at 82 mM, Agent 2 at 41 mM, Agent 3 at 47 mM, dihydrochloride
[9] = 6 hour exposure, room temperature (20° C.), Agent 1 at 82 mM, Agent 2 at 41 mM, Agent 3 at 47 mM, dihydrochloride

With `NCC[Te]CCN` [Agent 3, 2,2′-tellurodiethanamine 2 HCl] the “log10 reduction of MRSa” value (2 hour exposure, room temperature (20° C.), Agent 1 at 82 mM, Agent 2 at 41 mM, Agent 3 at 47 mM) was 3.4 log10, the “reduction of MRSa” value [1] was > 99.9% and the “log10 reduction of MRSa” value [2] was > 4.1 log10. For the same molecule, the “reduction of MRSa” value [2] was > 99.9%, the “log10 reduction of MRSa” value [3] was > 4.1 log10 and the “reduction of MRSa” value [3] was > 99.9%.
For `C=C(C)C(=O)OCC[Se]C#N` [2-selenocyanatoethyl methacrylate], the “log10 reduction of MRSa” value [4] was > 4.1 log10, the “reduction of MRSa” value [4] was > 99.9% and the “log10 reduction of MRSa” value [5] was > 4.1 log10. The “reduction of MRSa” value [5] was > 99.9%, the “log10 reduction of MRSa” value [6] was > 4.1 log10 and the “reduction of MRSa” value [6] was > 99.9%.
`O=[Te]([O-])[O-].[K+].[K+]` [Test Substance 1, Potassium tellurite, reference compound] was tested, and the “reduction of MRSa” value (all time points (exposure times of 2, 4 and 6 hours), starting ~3-4×10^6 CFU/mL MRSA ATCC 33592) was “very little to no reduction”.
With `NCC[Se][Se]CCN` [Agent 2, selenocystamine dihydrochloride, reference compound] the “reduction of MRSa” value [1] was 95.5%, the “log10 reduction of MRSa” value [7] was 1.34 log10 and the “log10 reduction of MRSa” value [8] was 1.946 log10. For the same molecule, the “reduction of MRSa” value [8] was 98.9%, the “log10 reduction of MRSa” value [9] was 2.024 log10 and the “reduction of MRSa” value [9] was 99.1%.
With `NCC[Se][Se]CCN` [Agent 1, selenocystamine dihydrochloride] the “reduction of MRSa” value (2 hour exposure, room temperature (20° C.), Agent 1 at 82 mM, Agent 2 at 41 mM, Agent 3 at 47 mM, 1.13×10^6 CFU/mL, dihydrochloride) was 51.3%, the “log10 reduction of MRSa” value [7] was 0.31 log10 and the “log10 reduction of MRSa” value [8] was 0.54 log10. For the same molecule, the “reduction of MRSa” value [8] was 71.7%, the “log10 reduction of MRSa” value [9] was 1.004 log10 and the “reduction of MRSa” value [9] was 90.1%.
